From patent US8987256B2, “Oxo-heterocyclic substituted carboxylic acid derivatives and the use thereof” (Bayer Intellectual Property GmbH, priority 2008, dated 2015) come the findings set out here.

In assay [1] the target is T1, soluble guanylate cyclase (sGC) (Rattus norvegicus, UniProt P20595).
T1 construct: made in house; host or cells: baculovirus/Sf9 insect cells
T1 sequence (P20595 1-619): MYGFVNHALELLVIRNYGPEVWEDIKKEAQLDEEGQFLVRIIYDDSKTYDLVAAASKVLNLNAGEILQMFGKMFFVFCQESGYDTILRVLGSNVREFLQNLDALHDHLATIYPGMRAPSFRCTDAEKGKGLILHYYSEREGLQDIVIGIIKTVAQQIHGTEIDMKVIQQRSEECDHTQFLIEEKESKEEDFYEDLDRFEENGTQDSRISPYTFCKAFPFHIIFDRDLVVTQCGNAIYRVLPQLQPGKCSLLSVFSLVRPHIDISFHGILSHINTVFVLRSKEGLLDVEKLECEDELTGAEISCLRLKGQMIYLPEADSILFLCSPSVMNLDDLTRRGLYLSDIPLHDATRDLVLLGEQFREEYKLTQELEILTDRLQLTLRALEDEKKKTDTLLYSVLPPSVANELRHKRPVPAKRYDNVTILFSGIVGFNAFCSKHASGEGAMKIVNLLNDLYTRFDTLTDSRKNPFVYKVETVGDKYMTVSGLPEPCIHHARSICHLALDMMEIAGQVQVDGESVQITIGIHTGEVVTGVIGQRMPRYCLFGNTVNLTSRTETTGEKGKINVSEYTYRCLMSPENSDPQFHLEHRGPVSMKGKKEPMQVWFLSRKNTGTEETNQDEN
T1 sequence (P19686 1-690 partner): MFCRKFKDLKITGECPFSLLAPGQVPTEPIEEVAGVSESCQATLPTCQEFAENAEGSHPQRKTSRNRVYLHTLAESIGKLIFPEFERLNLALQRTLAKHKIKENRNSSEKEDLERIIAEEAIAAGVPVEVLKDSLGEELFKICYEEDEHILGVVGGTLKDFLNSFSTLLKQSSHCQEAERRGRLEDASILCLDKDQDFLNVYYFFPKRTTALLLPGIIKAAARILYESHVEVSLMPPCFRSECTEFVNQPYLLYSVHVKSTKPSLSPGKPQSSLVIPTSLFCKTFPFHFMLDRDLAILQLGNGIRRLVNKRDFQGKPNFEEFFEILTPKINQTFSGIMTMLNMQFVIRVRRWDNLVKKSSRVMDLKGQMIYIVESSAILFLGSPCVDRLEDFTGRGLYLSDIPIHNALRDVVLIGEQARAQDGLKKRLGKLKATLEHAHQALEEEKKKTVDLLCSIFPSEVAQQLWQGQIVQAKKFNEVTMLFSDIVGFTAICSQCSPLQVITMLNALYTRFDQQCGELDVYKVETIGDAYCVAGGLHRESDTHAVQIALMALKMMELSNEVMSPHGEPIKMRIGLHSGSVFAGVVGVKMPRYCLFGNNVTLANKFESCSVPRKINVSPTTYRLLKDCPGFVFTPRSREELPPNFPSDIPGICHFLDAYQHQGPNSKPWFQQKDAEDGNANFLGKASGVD
Nature of the assay: Activating action at the sGC enzyme in vitro (PPi detection, luciferase). Type of assay: biochemical. The note with it: for EC50: read-out: EC50 (concentration at 50% of maximum efficacy), activating action at the sGC enzyme. The protocol:
Soluble guanylate cyclase (sGC) converts on stimulation GTP into cGMP and pyrophosphate (PPi). PPi is detected with the aid of the assay described below. The signal produced in the assay increases as the reaction progresses and serves as a measure of the sGC enzyme activity under the given stimulation.
To carry out the assay, 29 μl of enzyme solution [0-10 nM soluble guanylate cyclase (prepared according to Honicka et al., J. Mol. Med. 77, 14-23 (1999)) in 50 mM TEA, 2 mM MgCl2, 0.1% BSA (fraction V), 0.005% Brij®, pH 7.5] are initially introduced into a microplate, and 1 μl of the substance to be tested (as a serially diluted solution in DMSO) is added. The mixture is incubated at room temperature for 10 min. Then 20 μl of detection mix [1.2 nM Firefly Luciferase (Photinus pyralis luciferase, Promega), 29 μM dehydroluciferin (prepared according to Bitler & McElroy, Arch. Biochem. Biophys. 72, 358 (1957)), 122 μM luciferin (Promega), 153 μM ATP (Sigma) and 0.4 mM DTT (Sigma) in 50 mM TEA, 2 mM MgCl2, 0.1% BSA (fraction V), 0.005% Brij®, pH 7.5] are added. The enzyme reaction is started by adding 20 μl of substrate solution [1.25 mM guanosine 5′-triphosphate (Sigma) in 50 mM TEA, 2 mM MgCl2, 0.1% BSA (fraction V), 0.005% Brij®, pH 7.5] and measured continuously in a luminometer. The extent of the stimulation by the substance to be tested can be determined relative to the signal of the unstimulated reaction.
The activation of heme-free guanylate cyclase is examined by addition of 25 μM of 1H-1,2,4-oxadiazolo[4,3-a]quinoxalin-1-one (ODQ) to the enzyme solution and subsequent incubation for 30 minutes and compared to the stimulation of the native enzyme.

The target of assay [2] is T2, recombinant guanylate cyclase reporter cell line (Rattus norvegicus, UniProt P20595).
T2 construct: expressed in transfected cells; host or cells: CHO reporter cell line
T2 sequence (P20595 1-619): T1 sequence (P20595 1-619)
T2 sequence (P19686 1-690 partner): T1 sequence (P19686 1-690 partner)
Nature of the assay: sGC-activating activity in the CHO reporter cell in vitro. Format: cell-based. The protocol: The cellular action of the compounds according to the invention is determined at a recombinant guanylate cyclase reporter cell line, as described in F. Wunder et al., Anal. Biochem. 339, 104-112 (2005).

For `C[C@H]([C@H](C(=O)Nc1cccc(CC2(C(=O)O)CC2)c1)c1ccc(CN2Cc3ccccc3C2=O)cc1)C(F)(F)F` [Example 207], in assay [1], the “MEC (minimum effective concentration), activating action at the sGC enzyme” value (shortened to “MEC … at the sGC enzyme”) turned out to be 0.5 nM and the EC50 came to 11 nM. Also, the “MEC (minimum effective concentration), sGC-activating activity in the CHO reporter cell” value (shortened to “MEC … in the CHO reporter cell”) in assay [2] was found to be 3 nM.
Turning to `O=C(Nc1cccc(CC2(C(=O)O)CC2)c1)C(c1ccc(CN2N=C(c3ccccc3)OCC2=O)cc1)C1CCC(F)(F)C1` (single isomer, unassigned) [Example 241, 1-(3-{[(3,3-Difluorocyclopentyl) {4-[(5-oxo-2-phenyl-5,6-dihydro-4H-1,3,4-oxadiazin-4-yl)-methyl]phenyl}acetyl]amino}benzyl)cyclopropanecarboxylic acid], in assay [1], the “MEC … at the sGC enzyme” value stood at 1.2 nM and the EC50 is 17 nM. The “MEC … in the CHO reporter cell” value in assay [2] was determined as 3 nM.
With `Cc1ccc(=O)n(Cc2ccc(C(C(=O)Nc3cccc(CC4(C(=O)O)CC4)c3)C3CCCC3)cc2)n1` (stereo not drawn) [Example 171, 1-{3-[(cyclopentyl{4-[(3-methyl-6-oxopyridazin-1(6H)-yl)methyl]phenyl}acetyl)amino]benzyl}-cyclopropanecarboxylic acid], in assay [1], the “MEC … at the sGC enzyme” value was 3.7 nM and the EC50 was found to be 59 nM. In addition, the “MEC … in the CHO reporter cell” value in assay [2] was 30 nM.
Taken in the same sequence, the figures for `CC(C(C(=O)Nc1cccc(CC2(C(=O)O)CC2)c1)c1ccc(Cn2nc(C(F)(F)F)ccc2=O)cc1)C(F)(F)F` (single isomer, unassigned) [Example 181, 1-(3-{[4,4,4-trifluoro-3-methyl-2-(4-{[6-oxo-3-(trifluoromethyl)pyridazin-1(6H)-yl]methyl}-phenyl)-butanoyl]amino}benzyl)cyclopropanecarboxylic acid] were 1.4 nM, 69 nM and 0.7 nM.
Taken in the same sequence, the figures for `O=C(Nc1cccc(CC2(C(=O)O)CC2)c1)C(c1ccc(CN2Cc3c(F)cccc3C2=O)cc1)C1CCCC1` (stereo not drawn) [Example 213] were 1.2 nM, 24 nM and 3 nM.
With `O=C(Nc1ccc(F)c(CC2(C(=O)O)CC2)c1)C(c1ccc(CN2N=C(c3ccccc3)OCC2=O)cc1)C1CCCC1` (stereo not drawn) [Example 234], in assay [1], the “MEC … at the sGC enzyme” value is reported as 4.1 nM and the EC50 is 220 nM. Also, in assay [2], the “MEC … in the CHO reporter cell” value was 1 nM.
With `O=C(O)CCc1cc(NC(=O)C(c2ccc(CN3N=C(c4ccccc4)OCC3=O)cc2)C2CCCC2)ccc1F` (stereo not drawn) [Example 232], in assay [1], the “MEC … at the sGC enzyme” value worked out at 93 nM and the EC50 worked out at 1100 nM. For the same compound, in assay [2], the “MEC … in the CHO reporter cell” value is 20 nM.
Consider `O=C(Nc1cccc(CC2(C(=O)O)CC2)c1)C(c1ccc(Cn2ccc(C(F)(F)F)cc2=O)cc1)C1CCCC1` (stereo not drawn) [Example 176, 1-(3-{[cyclopentyl(4-{[2-oxo-4-(trifluoromethyl)-pyridin-1(2H)-yl]methyl}phenyl)acetyl]amino}-benzyl)cyclopropanecarboxylic acid], for which, in assay [1], the “MEC … at the sGC enzyme” value is listed as 10 nM and the EC50 came to 320 nM. For the same compound, in assay [2], the “MEC … in the CHO reporter cell” value worked out at 30 nM.
`C[C@H]([C@H](C(=O)Nc1cccc(CC2(C(=O)O)CC2)c1)c1ccc(CN2Cc3c(F)cccc3C2=O)cc1)C(F)(F)F` [Example 219]: in assay [1], the “MEC … at the sGC enzyme” value is recorded as 0.2 nM and the EC50 worked out at 3.6 nM. Also, in assay [2], the “MEC … in the CHO reporter cell” value is recorded as 0.2 nM.
On to `O=C(Nc1cc(CC2(C(=O)O)CC2)ccc1F)C(c1ccc(CN2N=C(c3ccccc3)OCC2=O)cc1)C1CCCC1` (stereo not drawn) [Example 231], for which, in assay [1], the “MEC … at the sGC enzyme” value is given as 0.4 nM and the EC50 is 5.2 nM. The “MEC … in the CHO reporter cell” value in assay [2] turned out to be 0.2 nM.
Taken in the same sequence, the figures for `O=C(Nc1cccc(CC2(C(=O)O)CC2)c1F)C(c1ccc(CN2N=C(c3ccccc3)OCC2=O)cc1)C1CCCC1` (stereo not drawn) [Example 233] were 3.3 nM, 78 nM and 0.3 nM.
For the compound `CC(C(C(=O)Nc1cccc(CCC(=O)O)c1Cl)c1ccc(CN2N=C(c3ccccc3)OCC2=O)cc1)C(F)(F)F` (stereo not drawn) [Example 184, 3-{2-chloro-3-[(4,4,4-trifluoro-3-methyl-2-{4-[(5-oxo-2-phenyl-5,6-dihydro-4H-1,3,4-oxadiazin-4-yl)methyl]-phenyl}butanoyl)amino]phenyl}propanoic acid], in assay [1], the “MEC … at the sGC enzyme” value is given as 7 nM and the EC50 was found to be 240 nM. The “MEC … in the CHO reporter cell” value in assay [2] turned out to be 3 nM.
In the case of `O=C(O)CCc1cc(F)cc(NC(=O)C(c2ccc(CN3N=C(c4ccccc4)OCC3=O)cc2)C2CCCC2)c1` (stereo not drawn) [Example 230], in assay [1], the “MEC … at the sGC enzyme” value was found to be 8.1 nM and the EC50 turned out to be 420 nM. In assay [2], the “MEC … in the CHO reporter cell” value came to 30 nM.
In the case of `CCC(C(C(=O)Nc1cccc(CC2(C(=O)O)CC2)c1)c1ccc(CN2N=C(c3ccccc3)OCC2=O)cc1)C(F)(F)F` (stereo not drawn) [Example 170, 1-(3-{[2-{4-[(5-oxo-2-phenyl-5,6-dihydro-4H-1,3,4-oxadiazin-4-yl)methyl]phenyl}-3-(trifluoromethyl)-pentanoyl]amino}benzyl)cyclopropanecarboxylic acid], in assay [1], the “MEC … at the sGC enzyme” value is reported as 1 nM and the EC50 stood at 11 nM. The “MEC … in the CHO reporter cell” value in assay [2] is on record as 3 nM.
